PMC8899820, “Pharmacokinetics, Tissue Distribution, and Excretion Characteristics of a Radix Polygoni Multiflori Extract in Rats” (Frontiers in Pharmacology, 2022)
Where two headings read alike, the source gives them in different places.

Experiments:
[1] = Dose-exposure relationship (power function model with confidence interval method)
Procedure: (§1) The pharmacokinetic parameters, including the area under the plasma concentration-time curve from time zero to time t (AUC0-t) to time infinity (AUC0-∞), the time to reach the maximum plasma concentration (T max), the elimination half-time (t 1/2), and the maximum plasma concentration (C max), were calculated using the pharmacokinetic software Phoenix® WinNonlin®, version 7.0 (Scientific Consulting Inc., Apex, NC, United States). Data are expressed as the mean ± standard deviation (SD) for each group. The dose-exposure relationship was evaluated by the power function model combined with the confidence interval method ([Smith et al., 2000]; [Sethuraman et al., 2007]; [Hummel et al., 2009]). First, the administration dose, AUC0-∞ and C max were logarithmically transformed, and then a linear regression was performed to obtain the curve correlation coefficient (R^2), slope and 90% confidence interval (90% CI).

[2] = RPM extract 36 g/kg p.o., rat plasma, Mean ± SD, n = 6; ref Cheng et al., 2020; cited from earlier work
[3] = Tissue distribution of RPM constituents after oral RPM extract; conditions: Sprague-Dawley, rat, po, 18 g/kg
Procedure: For the tissue distribution study, 18 rats were randomly divided into three groups (n = 6, each) and orally administered 18 g/kg RPM extract. The rats under isoflurane anesthesia were sacrificed by bleeding from the abdominal aorta at 5, 15, and 60 min (six rats per time point) after gavage with 18 g/kg RPM extract. Subsequently, the heart, liver, spleen, lung, kidney, brain, stomach, small intestine, bladder, and gonads (testes of male rats, and uterus and ovaries of female rats) were immediately collected. An accurately weighed amount of fresh tissue sample (0.25 g) was individually homogenized with normal saline (1 ml) and transferred (50 μL) as a tissue homogenate to 1.5 ml centrifuge tubes for use as the tissue samples. All tissue samples were stored at −70°C until analysis.
Samples were prepared using the protein precipitation process. […] The tissue samples were homogenized in four parts of ice-cold 0.9% saline solution and then centrifuged at 4°C and 12,000 × g for 10 min to obtain tissue homogenates. […] Tissue homogenate, urine, bile and fecal samples were subjected to a similar process as the rat plasma samples.
For the tissue distribution study, 18 rats were randomly divided into three groups (n=6, each), and orally administered with 18 g/kg RPM extract. The rats were sacrificed at 5, 15, 60 min after orally administering RPM. Subsequently, the heart, liver, spleen, lung, kidney, brain, stomach, small intestine, bladder, gonad (testes of male rats, uterus and ovaries of female rats) were immediately collected. An accurately weighed amount of fresh tissue sample (0.25 g) was individually homogenized with normal saline (1 mL) and transferred (50 μL) as a tissue homogenate to 1.5 mL centrifuge tubes for use as the tissue samples.

[4] = Plasma pharmacokinetics of RPM constituents after oral RPM extract; conditions: for time at which C max was exhibited: RPM extract p.o.; for plasma concentrations: RPM extract 6, 18 and 36 g/kg p.o.
Source text: For the pharmacokinetic (PK) study, three groups (n = 6 each) of rats were orally administered RPM extract (6, 18, and 36 g/kg). In the plasma pharmacokinetics experiment, doses were 6, 18, and 36 g/kg for the single administration group and 18 g/kg for the continuous administration group. The doses were set at a subtoxic level ([Zhang et al., 2013]; [Wang et al., 2015]) to investigate the pharmacokinetic profiles of the constituents of RPM (36 g/kg group) and were approximately 60 times the upper dose (6 g/day) for humans recommended by the 2020 edition of Chinese Pharmacopoeia ([Chinese Pharmacopoeia Commission, 2020]), which was converted to a dose for rats based on body surface area conversion ([Reagan-Shaw et al., 2008]). In addition, the low and medium doses decreased in a certain proportion. Serial blood samples (∼120 μL; before dosing and at 5, 15, and 30 min, and 1, 2, 4, 6, 8, 12, and 24 h after administration) were collected in heparinized tubes from the orbital sinus under light isoflurane. The blood samples were centrifuged at 12000 g for 2 min, and the plasma fractions were decanted and frozen at −70°C until analysis.
Samples were prepared using the protein precipitation process. Rat plasma (50 μL) spiked with 10 μL of IS (puerarin 100 ng/ml) was extracted with 150 μL acetonitrile. After vortex shaking for 5 min and centrifugation at 14,000 g for 5 min, 150 μL of the organic layer was transferred to a clean tube and evaporated to dryness at 25°C under a stream of nitrogen. The residue was reconstituted in 50 μL of the initial mobile phase and subjected to another round of centrifugation at 14,000 g for 5 min, and 5 μL of the supernatant was injected for LC–MS/MS analysis.
The analysis was performed on an AB Sciex API 5500 Q Trap mass spectrometer (Toronto, Canada), interfaced with a Waters Acquity UPLC separation module.
as §1

[5] = Biliary excretion in bile duct drained rats after oral RPM extract; conditions: single p.o. RPM extract 18 g/kg, rat bile
Procedure: (§2) For the excretion study, the rats were housed singly in metabolic cages with urine collection tubes kept at 4 °C during sample collection. Urine and fecal samples were collected at time intervals of 0–4, 4–8, 8–24, 24–32, and 32–48 h after a single dose of RPM extract at 18 g/kg and then weighed. Another six rats were anesthetized with pentobarbital, fixed in the supine position and subjected to bile duct drainage surgery, and the abdominal wound was sutured. Blank bile samples were collected before the administration of RPM. The rats were weighed, and the state of the rats was observed. Subsequently, they were orally administered 18 g/kg RPM extract. The bile samples were collected at time intervals of 0–1, 1–2, 2–4, 4–6, 6–8, 8–24, 24–32 and 32–48 h. The urine, feces, and bile samples were stored at −70°C until use.
(§3) Samples were prepared using the protein precipitation process. […] After vortex shaking for 5 min and centrifugation at 14,000 g for 5 min, 150 μL of the organic layer was transferred to a clean tube and evaporated to dryness at 25°C under a stream of nitrogen. The residue was reconstituted in 50 μL of the initial mobile phase and subjected to another round of centrifugation at 14,000 g for 5 min, and 5 μL of the supernatant was injected for LC–MS/MS analysis. […] Urine and bile samples were centrifuged at 4°C and 12,000 × g for 15 min. Fecal samples were homogenized in 0.9% saline and then centrifuged at 4°C and 12,000 × g for 15 min to gather the fecal homogenates. Tissue homogenate, urine, bile and fecal samples were subjected to a similar process as the rat plasma samples.
(§4) For the excretion study, 6 rats were placed in metabolic cage after orally administered with 18 g/kg RPM extract, and urine, feces samples were collected at time intervals of 0–4, 4–8, 8–24, 24–32, 32–48, 48–60, and 60–72 h. Another 6 rats were anesthetized with pentobarbital, fixed in the supine position and performed bile duct drainage operation, and the abdominal wound was sutured. […] Subsequently, they were orally administered with 18 g/kg RPM extract. The bile samples were collected at time intervals of 0–1, 1–2, 2–4, 4–6, 6–8, 8–24, 24–32 and 32–48 h. The urine, feces, and bile samples were stored at −70 °C until use.

[6] = Excretion into urine and feces and mass balance after oral RPM extract; conditions: for dose excreted: Sprague-Dawley, rat, po; for cumulative excretion into urine / detection in urine: rat urine
Procedure: as §2, §3, §4

[7] = AUC0-∞ vs p.o. dose of RPM extract, critical interval 0.88–1.12
[8] = C max vs p.o. dose of RPM extract, critical interval 0.80–1.20
[9] = log AUC0-∞ vs log p.o. dose of RPM extract, critical interval 0.88–1.12
[10] = log C max vs log p.o. dose of RPM extract, critical interval 0.80–1.20
[11] = both, bladder, AUC0-t in bladder, rat tissue: bladder, 18 g/kg RPM extract p.o., tissues collected at 5, 15, 60 min
[12] = both, heart, AUC0-t in heart, rat tissue: heart, 18 g/kg RPM extract p.o., tissues collected at 5, 15, 60 min
[13] = both, intestine, AUC0-t in intestine, rat tissue: intestine, 18 g/kg RPM extract p.o., tissues collected at 5, 15, 60 min
[14] = both, kidney, AUC0-t in kidney, rat tissue: kidney, 18 g/kg RPM extract p.o., tissues collected at 5, 15, 60 min
[15] = both, liver, AUC0-t in liver, rat tissue: liver, 18 g/kg RPM extract p.o., tissues collected at 5, 15, 60 min
[16] = both, lung, AUC0-t in lung, rat tissue: lung, 18 g/kg RPM extract p.o., tissues collected at 5, 15, 60 min
[17] = both, spleen, AUC0-t in spleen, rat tissue: spleen, 18 g/kg RPM extract p.o., tissues collected at 5, 15, 60 min
[18] = both, stomach, AUC0-t in stomach, rat tissue: stomach, 18 g/kg RPM extract p.o., tissues collected at 5, 15, 60 min
[19] = female, uterus, AUC0-t in uterus, rat tissue: uterus, 18 g/kg RPM extract p.o., tissues collected at 5, 15, 60 min
[20] = Sprague-Dawley, rat, plasma, po, 6 g/kg
[21] = Sprague-Dawley, rat, plasma, po, 18 g/kg
[22] = feces, Recovery in feces (%), mass balance, 18 g/kg RPM extract p.o., feces collected 0–72 h
[23] = urine and feces, recovery from the urine and feces, single p.o. RPM extract 18 g/kg, rats
[24] = urine, Recovery in urine (%), mass balance, 18 g/kg RPM extract p.o., urine collected 0–72 h
[25] = single p.o. RPM extract 18 g/kg, rat feces
[26] = single p.o. RPM extract 18 g/kg
[27] = female, ovary, AUC0-t in ovary, rat tissue: ovary, 18 g/kg RPM extract p.o., tissues collected at 5, 15, 60 min

Conclusion (dose-exposure relationship) [1, 7]	Conclusion (dose-exposure relationship) [1, 8]	Slope (90%CI) [1, 9]	Slope (90%CI) [1, 10]	AUC(0-t) [3, 11] [µM·h]	AUC(0-t) [3, 12] [µM·h]	AUC(0-t) [3, 14] [µM·h]	AUC(0-t) [3, 15] [µM·h]	AUC(0-inf) [4, 20] [µM·h]	AUC(0-t) [4, 20] [µM·h]	Cmax [4, 20] [nM]	MRT inf [4, 20] [h]	Tmax [4, 20] [h]	half-life [4, 20] [h]	AUC(0-t) [4, 21] [µM·h]	Cmax [4, 21] [nM]	Tmax [4, 21] [h]	SMILES	AUC0-∞ [2] [µM·h]	AUC(0-t) [2] [µM·h]	Cmax [2] [nM]	also measured
Nonlinear correlation	Nonlinear correlation	–0.667 (–1.14 to –0.193)	–0.158 (-0.337–0.021)	0.0376	0.0311	0.0132	0.0273	0.34 ± 0.195	0.0748 ± 0.0589	9.36 ± 3.26	40.3 ± 23.3	1.03 ± 0.96	26.3 ± 14.4	0.0198 ± 0.00941	7.87 ± 2.19	3.51 ± 3.06	Cc1cc(O)c2c(c1)C(=O)c1cccc(O)c1C2=O [Chrysophanol]	0.0404 ± 0.00736	0.0169 ± 0.00647	7.48 ± 2.21	AUC(0-t) [3, 13]: 0.0277 µM·h; AUC(0-t) [3, 16]: 0.0476 µM·h; AUC(0-t) [3, 17]: 0.0503 µM·h; AUC(0-t) ([3]; both, spleen, AUC0-t in the spleen, RPM extract 18 g/kg p.o., rat spleen, sampling 5, 15, 60 min): 0.0503 µM·h; AUC(0-t) [3, 18]: 0.0345 µM·h; AUC(0-t) [3, 19]: 0.029 µM·h
Nonlinear correlation	Nonlinear correlation	0.429 (0.326–0.532)	0.524 (0.396–0.652)	0.205	1.64	3.21	3.38	0.0919 ± 0.0145	0.0777 ± 0.00612	16.8 ± 4.1	7.55 ± 1.48	0.29 ± 0.1	4.83 ± 0.99	0.176 ± 0.0168	34.2 ± 4.59	0.26 ± 0.13	COc1cc(O[C@@H]2O[C@H](CO)[C@@H](O)[C@H](O)[C@H]2O)c2c(c1)C(=O)c1cc(C)cc(O)c1C2=O [PG, physcion-8-O-β-D-glucoside]	0.188 ± 0.0186	0.178 ± 0.0201	42.1 ± 10.9	cumulative excretion into bile [5]: 18.2 ± 3.29 nmol; dose excreted [6, 22]: 11.6%; dose excreted [6, 23]: 16.4%; dose excreted [6, 24]: 4.83%; cumulative excretion into feces [6, 25]: 13.6 ± 1.12 nmol; cumulative excretion into urine [6, 26]: 5.53 ± 2.08 nmol; MRT0-∞ [2]: 8.58 ± 1.72 h; t 1/2 [2]: 6.13 ± 1.06 h; AUC(0-t) ([3]; both, brain, AUC0-t in brain, rat tissue: brain, 18 g/kg RPM extract p.o., tissues collected at 5, 15, 60 min): 0.125 µM·h; AUC(0-t) [3, 13]: 0.692 µM·h; AUC(0-t) [3, 16]: 0.842 µM·h; AUC(0-t) [3, 17]: 2.69 µM·h; AUC(0-t) [3, 18]: 1.29 µM·h; AUC(0-t) [3, 27]: 0.614 µM·h; AUC(0-t) [3, 19]: 0.735 µM·h; AUC(0-t) ([3]; male, testis, AUC0-t in testis, rat tissue: testis, 18 g/kg RPM extract p.o., tissues collected at 5, 15, 60 min): 0.0806 µM·h; time at which C max was exhibited ([4]; rat plasma): ≤ 20 min; AUC(0-inf) [4, 21]: 0.192 ± 0.0126 µM·h; MRT inf [4, 21]: 9.64 ± 2.05 h; half-life [4, 21]: 7.09 ± 2.12 h
Nonlinear correlation	Uncertainty of linear relationship	0.551 (0.275–0.827)	0.774 (0.610–0.938)	0.0169	0.034	0.0243	0.0553	0.027 ± 0.0228	0.00861 ± 0.00169	1.09 ± 0.317	12.2 ± 2.93	3.5 ± 2.17	8 ± 2.01	0.0401 ± 0.00898	3.54 ± 0.652	1.83 ± 1.8	COc1cc(O)cc2c1C(=O)c1c(O)cc(CO)cc1C2=O [Questinol, questinol]	0.0575 ± 0.00945	0.0473 ± 0.00685	4 ± 0.673	detection in bile [5]: not detected; dose excreted [6, 23]: 4.12%; cumulative excretion into feces [6, 25]: 0.566 ± 0.0666 nmol; detection in urine [6, 26]: not have been detected; MRT0-∞ [2]: 13.6 ± 4.21 h; T max [2]: 4.38 ± 4.03 h; t 1/2 [2]: 8.90 ± 2.70 h; AUC(0-t) [3, 16]: 0.0251 µM·h; AUC(0-t) [3, 17]: 0.0103 µM·h; AUC(0-t) [3, 18]: 0.0061 µM·h; AUC(0-t) [3, 27]: 0.0168 µM·h; AUC(0-t) [3, 19]: 0.0186 µM·h; AUC(0-inf) [4, 21]: 0.0583 ± 0.0143 µM·h; MRT inf [4, 21]: 20.6 ± 13.5 h; half-life [4, 21]: 14.4 ± 9.99 h
–	–	–	–	–	–	–	–	–	–	–	–	–	–	–	–	–	Cc1cc(O)c2c(c1)C(=O)c1cccc(O[C@@H]3O[C@H](CO)[C@@H](O)[C@H](O)[C@H]3O)c1C2=O [CG, chrysophanol-8-O-β-D-glucoside]	–	–	–	plasma concentrations ([4]; rat plasma): too low to be detected
–	–	–	–	–	–	–	–	–	–	–	–	–	–	–	–	–	COc1cc(O)cc2c1C(=O)c1c(O)cc(C)cc1C2=O [questin]	–	–	–	plasma concentrations ([4]; rat plasma): too low to be detected
–	Nonlinear correlation	–	0.034 (-0.482–0.550)	–	–	–	–	–	–	–	–	–	–	0.00426 ± 0.00299	–	0.42 ± 0.14	O=C(O)c1cc(O)c2c(c1)C(=O)c1cccc(O)c1C2=O [Rhein, rhein]	0.00814 ± 0.00178	0.00391 ± 0.00223	3.74 ± 0.84	cumulative excretion into bile [5]: 45.0 ± 8.41 nmol; detection in feces [6, 25]: not detected; detection in urine [6, 26]: not detected; Cmax ([4]; RPM extract 18 g/kg p.o., rat plasma, Mean ± SD, n = 6): 3.72 ± 1.25 nM; plasma concentration ([4]; rats dosed with 6 g/kg RPM, plasma): could not be detected

SMILES	Conclusion (dose-exposure relationship) [1, 7]	Conclusion (dose-exposure relationship) [1, 8]	Slope (90%CI) [1, 9]	Slope (90%CI) [1, 10]	AUC(0-t) [3, 11] [µM·h]	AUC(0-t) [3, 12] [µM·h]	AUC(0-t) [3, 14] [µM·h]	AUC(0-t) [3, 15] [µM·h]	AUC(0-inf) [4, 20] [µM·h]	AUC(0-t) [4, 20] [µM·h]	Cmax [4, 20] [nM]	MRT inf [4, 20] [h]	Tmax [4, 20] [h]	half-life [4, 20] [h]	AUC(0-t) [4, 21] [µM·h]	Cmax [4, 21] [nM]	Tmax [4, 21] [h]	AUC0-∞ [2] [µM·h]	AUC(0-t) [2] [µM·h]	Cmax [2] [nM]	also measured
O=C1c2cccc(O)c2C(=O)c2c(O)cc(CO)cc21 [Aloe-emodin, aloe-emodin]	Uncertainty of linear relationship	Uncertainty of linear relationship	0.582 (0.278–0.885)	1.07 (0.795–1.35)	–	–	–	–	0.0124 ± 0.007	0.00832 ± 0.00416	8.25 ± 7.47	9.61 ± 8.77	0.29 ± 0.1	8.46 ± 7.14	0.0254 ± 0.0097	31.7 ± 3.03	–	0.0313 ± 0.0127	0.027 ± 0.012	42 ± 11.5	cumulative excretion into bile [5]: 61.1 ± 8.66 nmol; dose excreted [6, 22]: 21.7%; dose excreted ([6]; urine and feces, Recovery in urine and feces (%), mass balance, 18 g/kg RPM extract p.o., urine plus feces, 0–72 h): 31.4%; dose excreted [6, 24]: 9.69%; cumulative excretion into feces [6, 25]: 43.7 ± 6.18 nmol; cumulative excretion into urine [6, 26]: 19.3 ± 5.44 nmol; AUC(0-t) ([3]; both, brain): 0.00106 µM·h; AUC(0-t) ([3]; both, heart): 0.0169 µM·h; AUC(0-t) ([3]; both, intestine): 0.00733 µM·h; AUC(0-t) ([3]; both, kidney): 0.00977 µM·h; AUC(0-t) ([3]; both, liver): 0.0555 µM·h; AUC(0-t) ([3]; both, lung): 0.0313 µM·h; AUC(0-t) ([3]; both, spleen): 0.0525 µM·h; AUC(0-t) ([3]; both, stomach): 0.0238 µM·h; AUC(0-t) ([3]; female, ovary): 0.00666 µM·h; time at which C max was exhibited ([4]; rat plasma): ≤ 20 min; AUC(0-inf) [4, 21]: 0.0324 ± 0.0144 µM·h; MRT inf [4, 21]: 4.65 ± 3.53 h; half-life [4, 21]: 5.09 ± 3.38 h
